# Measured values from PubChem BioAssay AID330 (DTP/NCI, 2004).
# “And” between values parts separate entries of the source, which are not always exact repeats. Equal entries are not always repeated. Toxic doses and inconclusive results are not listed. Numbered stars: 1 amine (or outer) side, 2 acyl side, 3 side chain; on linkers, the order of the positions; unused ones are H or OH. Bridge positions count the residues as written; N and C are the ends. Square brackets hold non-standard residues; d marks the D form. Peptide text beside a SMILES is read from it. I, II: the chains in the order shown. * marks the point of attachment. Actinocin(1to9) = Cc1c2oc3c(C)ccc(C(=O)[*:2])c3nc-2c(C(=O)[*:1])c(N)c1=O; Hyp = O=C(O)[CH]1C[CH](O)CN1; NMeV = CN[CH](C(=O)O)C(C)C; Nle = CCCC[CH](N)C(=O)O; Cbz = O=C(OCc1ccccc1)*; Sar = CNCC(=O)O
# Tested on: P388 leukemia ip, CD2F1 mice, survival T/C
# Assay: NCI In Vivo Anticancer Drug Screen. Data for tumor model P388 Leukemia (intraperitoneal) in CD2F1 (CDF1) mice
# Settings: endpoint: median survival time, higher = longer survival
# In short: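 Mice carrying the transplanted tumor received test compound or vehicle. Survival was recorded in each group, and the value is the treated-group measurement divided by that of the vehicle-treated control group.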
# [1] = dose: 50.0 mg/kg/injection, schedule: Q01DX005 (ip), vehicle: saline with Tween-80
# [2] = dose: 100.0 mg/kg/injection, schedule: Q01DX005 (ip), vehicle: saline with Tween-80
# [3] = dose: 200.0 mg/kg/injection, schedule: Q01DX005 (ip), vehicle: saline with Tween-80
# [4] = dose: 60.0 mg/kg/injection, schedule: Q01DX005 (ip), vehicle: Klucel (hydroxypropylcellulose) (HPC)
# [5] = dose: 120.0 mg/kg/injection, schedule: Q01DX005 (ip), vehicle: Klucel (hydroxypropylcellulose) (HPC)
# [6] = dose: 240.0 mg/kg/injection, schedule: Q01DX005 (ip), vehicle: Klucel (hydroxypropylcellulose) (HPC)
# [7] = dose: 50.0 mg/kg/injection, schedule: Q01DX005 (ip), vehicle: Klucel (hydroxypropylcellulose) (HPC)
# [8] = dose: 100.0 mg/kg/injection, schedule: Q01DX005 (ip), vehicle: Klucel (hydroxypropylcellulose) (HPC)
# [9] = dose: 200.0 mg/kg/injection, schedule: Q01DX005 (ip), vehicle: Klucel (hydroxypropylcellulose) (HPC)
# [10] = dose: 60.0 mg/kg/injection, schedule: Q01DX005 (ip), vehicle: saline with Tween-80
# [11] = dose: 120.0 mg/kg/injection, schedule: Q01DX005 (ip), vehicle: saline with Tween-80
# [12] = dose: 240.0 mg/kg/injection, schedule: Q01DX005 (ip), vehicle: saline with Tween-80
structure (smiles),measurement,setting,value
"Cc1c2oc3c(C)ccc(C(=O)NC4C(=O)NC(C(C)C)C(=O)N5CCCC5C(=O)N(C)CC(=O)N(C)C(C(C)C)C(=O)OC4C)c3nc-2c(C(=O)NC2C(=O)NC(C(C)C)C(=O)N3CC(O)CC3C(=O)N(C)CC(=O)N(C)C(C(C)C)C(=O)OC2C)c(N)c1=O (stereo not given) (I: TV[Hyp][Sar][NMeV] / II: TVP[Sar][NMeV]; ester I:1-I:C, II:1-II:C; linker I:N-II:N via Actinocin(1to9); configuration not given here)",T/C,"dose: 0.1 mg/kg/injection, schedule: Q01DX009 (ip), vehicle: Klucel (hydroxypropylcellulose) (HPC)",221 % of control
same,T/C,"dose: 0.2 mg/kg/injection, schedule: Q01DX009 (ip), vehicle: Klucel (hydroxypropylcellulose) (HPC)",108 % of control
same,T/C,"dose: 0.2 mg/kg/injection, schedule: Q01DX009 (ip), vehicle: water",151 % of control
same,T/C,"dose: 0.4 mg/kg/injection, schedule: Q01DX009 (ip), vehicle: water",186 % of control
CCCCC(NC(=O)C(Cc1ccccc1)NC(=O)OCc1ccccc1)C(=O)O (stereo not drawn) (Cbz-Phe-[Nle]-OH; configuration not given here),T/C,[1],104 % of control
same,T/C,[2],105 % of control
same,T/C,[3],97 % of control
CCN(CC)C1=C2/C=CC3=C2\C(=C/C=C\C=C/1C)CC3=O,T/C,[4],95 % of control
same,T/C,[5],98 % of control
same,T/C,[6],96 % of control
Clc1ccc(C2=NON(c3ccccn3)C3C=CC=CN23)cc1 (stereo not given),T/C,[1],97 % of control
same,T/C,[2],93 % of control
same,T/C,[3],93 % of control
NC(COC(=O)c1ccccc1)C(=O)O (stereo not given),T/C,[1],100 % of control
same,T/C,[2],98 % of control
same,T/C,[3],93 % of control
CC1CC[N-]CC1.CC1CC[N-]CC1.CS(C)=O.[Cl][Rh]([Cl])[Cl],T/C,"dose: 3.0 mg/kg/injection, schedule: Q01DX009 (ip), vehicle: saline with Tween-80",104 % of control
same,T/C,"dose: 3.0 mg/kg/injection, schedule: Q04DX003 (ip), vehicle: saline with Tween-80",104 % of control
same,T/C,"dose: 6.0 mg/kg/injection, schedule: Q01DX009 (ip), vehicle: saline with Tween-80",95 % of control
same,T/C,"dose: 6.0 mg/kg/injection, schedule: Q04DX003 (ip), vehicle: saline with Tween-80",100 % of control
same,T/C,"dose: 12.0 mg/kg/injection, schedule: Q01DX009 (ip), vehicle: saline with Tween-80",95 % of control
same,T/C,"dose: 12.0 mg/kg/injection, schedule: Q04DX003 (ip), vehicle: saline with Tween-80",109 % of control
O=S12(OC(C(F)(F)F)(C(F)(F)F)c3ccccc31)OC(C(F)(F)F)(C(F)(F)F)c1ccccc12,T/C,[7],111 % of control
same,T/C,[8],103 % of control
same,T/C,[9],100 % of control
CC(=O)Oc1cc(C)c(Cl)c2c(OC(C)=O)cc(C(C)=O)c(O)c12,T/C,"dose: 50.0 mg/kg/injection, schedule: Q01DX009 (ip), vehicle: Klucel (hydroxypropylcellulose) (HPC)",91 % of control
same,T/C,"dose: 100.0 mg/kg/injection, schedule: Q01DX009 (ip), vehicle: Klucel (hydroxypropylcellulose) (HPC)",91 % of control
same,T/C,"dose: 200.0 mg/kg/injection, schedule: Q01DX009 (ip), vehicle: Klucel (hydroxypropylcellulose) (HPC)",90 % of control
CN=C(N)N/N=C/c1ccc(-c2ccccc2)cc1,T/C,"dose: 25.0 mg/kg/injection, schedule: Q04DX002 (ip), vehicle: saline",105 % of control
same,T/C,"dose: 50.0 mg/kg/injection, schedule: Q04DX002 (ip), vehicle: saline",111 % of control
COC(=O)C1C[S][Sn]2([NH]1)[NH]C(C(=O)OC)C[S]2 (stereo not given),T/C,[7],108 % of control
same,T/C,[8],106 % of control
same,T/C,[9],101 % of control
COc1ccccc1C(O)c1cnc(C)n1Cc1ccccc1 (stereo not given),T/C,[10],98 % of control
same,T/C,[11],107 % of control
same,T/C,[12],97 % of control
O=C1C=C(N2CC2)C(=O)C=C1N1CC1,T/C,"dose: 0.12 mg/kg/injection, schedule: Q01DX009 (ip), vehicle: saline",157 % of control
same,T/C,"dose: 0.25 mg/kg/injection, schedule: Q01DX009 (ip), vehicle: saline",150 % of control and 170 % of control and 196 % of control
same,T/C,"dose: 0.5 mg/kg/injection, schedule: Q01DX009 (ip), vehicle: saline",153 % of control and 185 % of control and 206 % of control
same,T/C,"dose: 1.0 mg/kg/injection, schedule: Q01DX009 (ip), vehicle: saline",95 % of control
NS(=O)(=O)Oc1ccccc1C(=O)Oc1ccccc1Cl,T/C,[4],99 % of control
same,T/C,[5],99 % of control
same,T/C,[6],94 % of control
CCOC(=O)COc1cc2c(cc1C(C)c1ccc(OCc3ccccc3)c(OC)c1)OCO2 (stereo not given),T/C,[7],87 % of control
same,T/C,[8],90 % of control
COc1cccc(-c2nc(-c3ccccc3)nc(N(C)C)n2)c1O,T/C,[4],98 % of control
same,T/C,[5],92 % of control
N=C(N)c1ccc(OCCCCCCOc2ccc(C(=N)N)cc2I)cc1,T/C,"dose: 3.12 mg/kg/injection, schedule: Q01DX005 (ip), vehicle: Klucel (hydroxypropylcellulose) (HPC)",97 % of control
same,T/C,"dose: 6.25 mg/kg/injection, schedule: Q01DX005 (ip), vehicle: Klucel (hydroxypropylcellulose) (HPC)",106 % of control
same,T/C,"dose: 12.5 mg/kg/injection, schedule: Q01DX005 (ip), vehicle: Klucel (hydroxypropylcellulose) (HPC)",107 % of control and 97 % of control
O=C1C=C/C(=C\c2cccc(Cl)c2)O1,T/C,"dose: 100.0 mg/kg/injection, schedule: Q01DX002 (ip), vehicle: Klucel (hydroxypropylcellulose) (HPC)",103 % of control
same,T/C,"dose: 200.0 mg/kg/injection, schedule: Q01DX002 (ip), vehicle: Klucel (hydroxypropylcellulose) (HPC)",107 % of control
same,T/C,"dose: 400.0 mg/kg/injection, schedule: Q01DX002 (ip), vehicle: Klucel (hydroxypropylcellulose) (HPC)",103 % of control
Cc1ccc2c(c1)C(=Nc1ccc(Cl)cc1)C(=O)N2,T/C,"dose: 0.93 mg/kg/injection, schedule: Q01DX005 (ip), vehicle: saline with Tween-80",101 % of control
same,T/C,"dose: 1.87 mg/kg/injection, schedule: Q01DX005 (ip), vehicle: saline with Tween-80",93 % of control
same,T/C,"dose: 3.75 mg/kg/injection, schedule: Q01DX005 (ip), vehicle: saline with Tween-80",87 % of control
same,T/C,"dose: 15.0 mg/kg/injection, schedule: Q01DX005 (ip), vehicle: saline with Tween-80",87 % of control
same,T/C,[10],99 % of control
same,T/C,[11],87 % of control
same,T/C,[12],95 % of control
Cc1ccc(S(=O)(=O)NNC(=O)c2nc3ccccc3c(=O)[nH]2)cc1,T/C,[10],100 % of control
same,T/C,[11],92 % of control
CN(C)c1ccc(/C=N/NC(N)=S)nc1,T/C,"dose: 50.0 mg/kg/injection, schedule: Q04DX003 (ip), vehicle: saline with Tween-80",150 % of control
NCC(=O)CN.[Cl-].[Cl-].[Pt+2],T/C,"dose: 25.0 mg/kg/injection, schedule: Q04DX003 (ip), vehicle: other",121 % of control
same,T/C,"dose: 200.0 mg/kg/injection, schedule: Q04DX003 (ip), vehicle: other",158 % of control
same,T/C,"dose: 400.0 mg/kg/injection, schedule: Q04DX003 (ip), vehicle: other",177 % of control
CC(C)(C)SCC(CSC(C)(C)C)(CSC(C)(C)C)CSC(C)(C)C,T/C,"dose: 1.5 mg/kg/injection, schedule: Q01DX001 (ip), vehicle: saline with Tween-80",102 % of control
same,T/C,"dose: 3.0 mg/kg/injection, schedule: Q01DX001 (ip), vehicle: saline with Tween-80",98 % of control
same,T/C,"dose: 6.0 mg/kg/injection, schedule: Q01DX001 (ip), vehicle: saline with Tween-80",112 % of control
CC1=C(CCC(=O)O)c2cc3nc(cc4[nH]c(cc5[nH]c(cc1n2)c(C)c5C1CC1C(=O)O)c(C)c4C1CC1C(=O)O)C(C)=C3CCC(=O)O (stereo not given),T/C,[7],106 % of control
same,T/C,[8],101 % of control
same,T/C,[9],95 % of control
O=C(NC(=O)C(F)(F)C(F)(F)C(F)(F)F)Nc1ccc(F)c(Cl)c1,T/C,"dose: 50.0 mg/kg/injection, schedule: Q01DX009 (ip), vehicle: saline with Tween-80",107 % of control
same,T/C,"dose: 100.0 mg/kg/injection, schedule: Q01DX009 (ip), vehicle: saline with Tween-80",99 % of control
same,T/C,"dose: 200.0 mg/kg/injection, schedule: Q01DX009 (ip), vehicle: saline with Tween-80",105 % of control
